Test results from ChEMBL document CHEMBL1153356, “Inhibition of NF-kB and metalloproteinase-9 expression and secretion by parthenolide derivatives” (Bioorg Med Chem Lett, 2009).
Activity calls are given as the source filed them. The calls are words filed in the database; no cut-off is given here.

Key:
[1] = tested on: THP-1; test: Cytotoxicity against human THP1 cells at 20 uM by MTT assay; format: functional, cell-based
[2] = Inhibition of NF-kappaB-mediated transcriptional activity transfected in PMA-stimulated HEK293 cells after 24 hrs by luciferase reporter gene assay; format: cell-based; settings: HEK293, 24 h
[3] = tested on: THP-1; test: Inhibition of MMP9 secretion in PMA-stimulated human THP1 cells at 20 uM; format: functional, cell-based
[4] = tested on: HEK293; test: Cytotoxicity against HEK293 cells at 20 uM by MTT assay; format: cell-based; settings: human, hek293, 20 µM
[5] = tested on: HEK293; test: Inhibition of MMP9 gene transcription in PMA-stimulated HEK293 cells after 24 hrs by luciferase reporter gene assay; format: functional, cell-based; settings: Homo sapiens, HEK293, 24 h

| SMILES | IC50 [2] [µM] | Activity [1] | Activity [3] | Activity [4] | IC50 [5] [µM] |
| --- | --- | --- | --- | --- | --- |
| C=C1C(=O)O[C@H]2[C@H]1CC/C(C)=C\CC[C@@]1(C)O[C@@H]21 | 7.4 | Not toxic | Active | Non-toxic | 8.5 |
| C=C1C(=O)O[C@@H]2[C@@H](O)[C@]3(C)CC[C@H]3[C@](C)(OC)CC[C@@H]12 | 2.04 | Not toxic |  | Non-toxic | 3.2 |
| C=C1C(=O)O[C@@H]2C3O[C@]3(C)CC/C=C(\C)CC[C@@H]12 (stereo partly drawn) | 9.76 | Not toxic | Active | Non-toxic | 6.6 |

The next lines start with results.

| IC50 [2] [µM] | SMILES | Activity [1] | Activity [3] | Activity [4] | IC50 [5] [µM] |
| --- | --- | --- | --- | --- | --- |
| 6 | C=C1C(=O)O[C@H]2[C@@H]3[C@@H](CC[C@@]3(C)O)[C@](C)(OC)CC[C@@H]12 | Not toxic | Active | Non-toxic | 8.6 |
| 2.8 | C=C1C(=O)O[C@@H]2[C@@H](O)[C@]3(C)CC[C@H]3[C@](C)(O)CC[C@@H]12 | Not toxic |  | Non-toxic | 3.8 |
| 8.8 | C=C1C(=O)O[C@H]2[C@@H]3[C@@H](CC[C@@]3(C)O)C(=C)CC[C@@H]12 | Not toxic | Active | Non-toxic | 6.6 |
